Assay results reported in patent publication US20120165319A1, “INHIBITORS OF INTERLEUKIN-1 BETA CONVERTING ENZYME” (VERTEX PHARMACEUTICALS INCORPORATED, priority 1995, published 2012).
Read-outs that look alike come from different tables or passages of the source. One block for each molecule: values may come before it.

What was measured:
IL-1β, human whole blood = assay: Whole blood assay for IL-1β production; format: cell-based; conditions: read-out: Whole human blood IC50
Method: The whole blood assay is a simple method for measuring the production of IL-1b (or other cytokines) and the activity of potential inhibitors. The complexity of this assay system, with its full complement of lymphoid and inflammatory cell types, spectrum of plasma proteins and red blood cells is an ideal in vitro representation of human in vivo physiologic conditions.
Pyrogen-free syringes (˜30 cc) Pyrogen-free sterile vacuum tubes containing lyophilized Na2EDTA (4.5 mg/10 ml tube) Human whole blood sample (˜30-50 cc) 1.5 ml eppendorf tubes Test compound stock solutions (˜25 mM in DMSO or other solvent) Endotoxin-free sodium chloride solution (0.9%) and HBSS Lipopolysaccharide (Sigma; Cat. # L-3012) stock solution at 1 mg/ml in HBSS
IL-1β ELISA Kit (R & D Systems; Cat # DLB50)
TNFα ELISA Kit (R & D Systems; Cat # DTA50)
Whole Blood Assay Experimental Procedure:
Set incubator or water bath at 30° C. Aliquot 0.25 ml of blood into 1.5 ml eppendorf tubes. Note: be sure to invert the whole blood sample tubes after every two aliquots. Differences in replicates may result if the cells sediment and are not uniformly suspended. Use of a positive displacement pipette will also minimize differences between replicate aliquots.
Prepare drug dilutions in sterile pyrogen-free saline by serial dilution. A dilution series which brackets the apparent Ki for a test compound determined in an ICE inhibition assay is generally used for the primary compound screen.
Add 25 μl test compound dilution or vehicle control and gently mix the sample. Then add 5.0 μl LPS solution (250 ng/ml stocked prepared fresh: 5.0 ng/ml final concentration LPS), and mix again. Incubate the tubes at 30° C. in a water bath for 16-18 hr with occasional mixing. Alternatively, the tubes can be placed in a rotator set at 4 rpm for the same incubation period. This assay should be set up in duplicate or triplicate with the following controls: negative control—no LPS; positive control—no test inhibitor; vehicle control—the highest concentration of DMSO or compound solvent used in the experiment. Additional saline is added to all control tubes to normalize volumes for both control and experimental whole blood test samples
After the incubation period, whole blood samples are centrifuged for 10 minutes at ˜2000 rpm in the microfuge, plasma is transferred to a fresh microfuge tube and centrifuged at 1000×g to pellet residual platelets if necessary. Plasma samples may be stored frozen at −70° C. prior to assay for cytokine levels by ELISA.
We have used R & D Systems (614 McKinley Place N.E. Minneapolis, Minn. 55413) Quantikine kits for measurement of IL-1β and TNF-α. The assays are performed according to the manufacturer's directions.
We have observed IL-1β levels of ˜1-5 ng/ml in positive controls among a range of individuals. A 1:200 dilution of plasma for all samples has been sufficient in our experiments for ELISA results to fall on the linear range of the ELISA standard curves. It may be necessary to optimize standard dilutions if you observe differences in the whole blood assay. Nerad, J. L. et al., J. Leukocyte Biol., 52, pp. 687-692 (1992).

ICE = biological target: T1, ICE (Homo sapiens, UniProt P29466); assay: Enzyme assay with UV-visible substrate (visible ICE assay, Succinyl-Tyr-Val-Ala-Asp-pNitroanilide); format: biochemical
T1 sequence (P29466 120-297 limits assumed): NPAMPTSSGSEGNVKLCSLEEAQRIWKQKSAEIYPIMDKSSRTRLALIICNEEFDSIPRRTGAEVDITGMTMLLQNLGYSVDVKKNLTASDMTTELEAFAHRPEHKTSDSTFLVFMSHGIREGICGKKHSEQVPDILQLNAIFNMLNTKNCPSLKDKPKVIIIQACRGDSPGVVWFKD
T1 sequence (P29466 317-404 limits assumed): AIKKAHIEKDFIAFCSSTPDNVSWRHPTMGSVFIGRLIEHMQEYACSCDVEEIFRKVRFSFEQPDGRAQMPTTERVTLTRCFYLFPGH
Summary of the method: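 ICE preincubated with inhibitor in DMSO for 15 min at room temperature, then Suc-Tyr-Val-Ala-Asp-pNA added. pNA release read at 405-603 nm for 20 min at 37 °C, rate from linear fit in mOD/min. Ki and inhibition mode from fits of rates at varying inhibitor concentrations to standard kinetic equations.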

[1] = tested on: IL-1β, human peripheral blood mononuclear cells (PBMC); assay: PBMC cell assay: IL-1β assay with human PBMC or enriched adherent mononuclear cells, LPS-stimulated; format: cell-based; conditions: Homo sapiens, PBMC
Summary of the method: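 Buffy-coat human PBMC at 6×10^6 cells/ml, or adherent monocytes enriched by 1 h adherence (2.5−3.0×10^5 cells/well), are given 5–6 compound dilutions bracketing the ICE Ki (final DMSO 0.1%) plus LPS at a final 5 ng/ml. They are incubated 16–18 hr at 37 °C, 5% CO2, and supernatant mature IL-1β is measured by ELISA, with duplicate cultures and duplicate ELISAs.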

[2] = Homo sapiens, * = values obtained upon reassay
[3] = * = values obtained upon reassay

SMILES: Cc1ccc(Cl)cc1C(=O)N[C@H]1CCC(=O)N2CCC[C@@H](C(=O)N[C@H](C=O)CC(=O)O)N2C1=O [Compound 466]
IC50 (IL-1β, human whole blood; [2]): 0.6 µM
Ki (ICE; Table 5): 0.8 nM
IC50 [1, 3]: 1400 nM

SMILES: CC(=O)OCC(=O)N1C[C@H](NC(=O)c2ccccc2)C(=O)N(CC(=O)N[C@H](C=O)CC(=O)O)c2ccccc21 [Compound 683, (3S)-3-[(3S)-2-Oxo-3-benzoylamino-5-(2-acetoxy)acetyl-2,3,4,5-tetrahydro-1H-1,5-benzodiazepine-1-acetylamino]-4-oxo-butyric acid]
IC50 (IL-1β, human whole blood; Homo sapiens, Table 17): > 20 µM
Ki (ICE; Table 17): 400 nM
IC50 ([1]; Table 17): > 20000 nM

SMILES: O=C[C@H](CC(=O)O)NC(=O)[C@@H]1CCCN2C(=O)CC[C@H](NC(=O)c3ccc(NC(=O)c4ccccc4)cc3)C(=O)N12 [Compound 483]
IC50 (IL-1β, human whole blood; [2]): 0.7 µM
Ki (ICE; Table 5): 1.7 nM
IC50 [1, 3]: 900 nM

SMILES: CC(=O)N1C[C@H](NC(=O)c2ccc3cc(O)ccc3c2)C(=O)N(CC(=O)N[C@H](C=O)CC(=O)O)c2ccccc21 [Compound 622]
IC50 (IL-1β, human whole blood; [2]): > 20 µM
Ki (ICE; Table 5): 35 nM
IC50 [1, 3]: 1300 nM

SMILES: COc1ccccc1C(=O)N[C@H]1CCC(=O)N2CCC[C@@H](C(=O)N[C@H](C=O)CC(=O)O)N2C1=O [Compound 405]
IC50 (IL-1β, human whole blood; [2]): 2.1 µM
Ki (ICE; Table 5): 6.5 nM
IC50 [1, 3]: 1700 nM

SMILES: O=C[C@H](CC(=O)O)NC(=O)[C@@H]1CCCN2C(=O)CC[C@H](NC(=O)c3cc(Cl)cc(Cl)c3)C(=O)N12 [Compound 214j, [3S(1S,9S)]3-(9-(3,5-Dichlorobenzoyl)amino-6,10-dioxo-1,2,3,4,7,8,9,10-octahydro-6H-pyridazino[1,2-a][1,2]diazepine-1-carboxamido)-4-oxobutanoic acid]
IC50 (IL-1β, human whole blood; Homo sapiens, Table 17): 6 µM
Ki (ICE; Table 17): 4.2 nM
IC50 ([1]; Table 17): 2500 nM

SMILES: O=C[C@H](CC(=O)O)NC(=O)[C@@H]1CCCN2C(=O)CC[C@H](NC(=O)C(=O)Nc3ccc(Cl)cc3)C(=O)N12 [Compound 500]
IC50 (IL-1β, human whole blood; Homo sapiens, Table 17): 1.8 µM
Ki (ICE; Table 17): 25 nM
IC50 ([1]; Table 17): 1800 nM

SMILES: O=C[C@H](CC(=O)O)NC(=O)[C@@H]1CCCN2C(=O)CC[C@H](NC(=O)c3cccc4cccnc34)C(=O)N12 [Compound 439]
IC50 (IL-1β, human whole blood; [3]): 3.4 µM
IC50 (IL-1β, human whole blood; [2]): 3.2 µM
Ki (ICE; Table 5): 3.7 nM
IC50 [1, 3]: 2800 nM

Continued, in another order:

IC50 (IL-1β, human whole blood; Homo sapiens, Table 17): 2.1 µM
Ki (ICE; Table 17): 3 nM
SMILES: COc1c(C)cc(C(=O)N[C@H]2CN(C(=O)CO)c3ccccc3N(CC(=O)N[C@H](C=O)CC(=O)O)C2=O)cc1C [Compound 694, (3S)-3-[(3S)-2-Oxo-3-(3,5-dimethyl-4-methoxybenzoyl)amino-5-hydroxyacetyl-2,3,4,5-tetrahydro-1H-1,5-benzodiazepine-1-acetylamino-]4-oxo-butyric acid]
IC50 ([1]; Table 17): 2600 nM

IC50 (IL-1β, human whole blood; Homo sapiens, Table 17): 7 µM
Ki (ICE; Table 17): 4.5 nM
SMILES: CN(C)c1ccc(C(=O)N[C@H]2CN(C(=O)CO)c3ccccc3N(CC(=O)N[C@H](C=O)CC(=O)O)C2=O)cc1 [Compound 913]
IC50 ([1]; Table 17): 2400 nM

IC50 (IL-1β, human whole blood; Homo sapiens, Table 17): 3.8 µM
Ki (ICE; Table 17): 10 nM
SMILES: COc1ccc(C(=O)N[C@H]2CN(C(=O)CO)c3ccccc3N(CC(=O)N[C@H](C=O)CC(=O)O)C2=O)cc1 [Compound 912]
IC50 ([1]; Table 17): 4200 nM

IC50 (IL-1β, human whole blood; Homo sapiens, Table 17): 5 µM
Ki (ICE; Table 17): 9 nM
SMILES: O=C[C@H](CC(=O)O)NC(=O)CN1C(=O)[C@@H](NC(=O)C(=O)c2ccccc2)CN(C(=O)CO)c2ccccc21 [Compound 681, (3S)-3-[(3S)-2-Oxo-3-benzoylformylamino-5-(2-hydroxy)acetyl-2,3,4,5-tetrahydro-1H-1,5-benzodiazepine-1-acetylamino]-4-oxo-butyric acid]
IC50 ([1]; Table 17): 3000 nM

IC50 (IL-1β, human whole blood; Homo sapiens, Table 17): 20 µM
Ki (ICE; Table 17): 45 nM
SMILES: CC(=O)N1C[C@H](NC(=O)C(=O)c2ccc3c(c2)OCO3)C(=O)N(CC(=O)N[C@H](C=O)CC(=O)O)c2ccccc21 [Compound 702]
IC50 ([1]; Table 17): > 5000 nM

IC50 (IL-1β, human whole blood; Homo sapiens, Table 17): 5.8 µM
Ki (ICE; Table 17): 5 nM
SMILES: COc1cccc(OC)c1C(=O)C(=O)N[C@H]1CN(C(C)=O)c2ccccc2N(CC(=O)N[C@H](C=O)CC(=O)O)C1=O [Compound 706]
IC50 ([1]; Table 17): 2400 nM

IC50 (IL-1β, human whole blood; Homo sapiens, Table 17): 4.3 µM
Ki (ICE; Table 17): 4 nM
SMILES: O=C[C@H](CC(=O)O)NC(=O)CN1C(=O)[C@@H](NC(=O)c2cc3ccccc3[nH]2)CN(C(=O)CO)c2ccccc21 [Compound 919]
IC50 ([1]; Table 17): 2000 nM
